In PMC7481482, “Development of Anthraquinone Derivatives as Ectonucleoside Triphosphate Diphosphohydrolase (NTPDase) Inhibitors With Selectivity for NTPDase2 and NTPDase3” (Frontiers in Pharmacology, 2020) one finds IC50 and inhibition data, which are given here for one molecule.

The test system of one assay is rat CD73. The arrangement: method as in Baqi et al., 2010. The settings on record: ref Baqi et al., 2010; cited from earlier work.
A further assay relates to rat NTPDase2. The following applies: rat enzyme; ref Baqi et al., 2009b; cited from earlier work.
The subject of the next assay is rat NTPDase1. The following applies: rat enzyme; ref Baqi et al., 2009b; cited from earlier work.
The next assay concerns the target T1, human NTPDase8 (Homo sapiens, UniProt Q5MY95).
T1 construct: expressed in transfected cells; host or cells: COS-7 cells (membrane preparation)
T1 sequence (Q5MY95 1-495): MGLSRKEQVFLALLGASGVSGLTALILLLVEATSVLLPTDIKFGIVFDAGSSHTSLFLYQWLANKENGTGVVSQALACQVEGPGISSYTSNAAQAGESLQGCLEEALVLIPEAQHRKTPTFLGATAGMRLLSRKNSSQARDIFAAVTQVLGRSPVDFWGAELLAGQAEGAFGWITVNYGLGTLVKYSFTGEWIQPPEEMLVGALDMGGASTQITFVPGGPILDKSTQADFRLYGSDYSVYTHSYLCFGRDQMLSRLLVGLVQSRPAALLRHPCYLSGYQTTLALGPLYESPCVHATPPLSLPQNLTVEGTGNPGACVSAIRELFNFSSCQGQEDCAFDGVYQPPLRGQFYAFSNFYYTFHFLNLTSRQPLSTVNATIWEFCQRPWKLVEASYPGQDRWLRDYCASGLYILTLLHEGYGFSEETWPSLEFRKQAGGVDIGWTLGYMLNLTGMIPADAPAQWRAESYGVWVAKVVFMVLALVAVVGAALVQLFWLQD
Kind of assay: Malachite green assay, human NTPDase8. The assay is classed as biochemical. The following applies: 2 μM compound; 100 µM ATP; COS-7 membrane preparation; read-out: % inhibition at 2 μM concentration, NTPDase8. The essentials: (§1)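 COS-7 membranes expressing each NTPDase were preincubated with compound for 5 min at 37 °C, pH 7.4 HEPES buffer with 2 mM CaCl2/1 mM MgCl2. ATP was 50 µM for NTPDase1 and 100 µM for -2, -3, -8; reaction ran 15 min at 37 °C. Released phosphate read by malachite green at 600 nm; screen at 2 µM, IC50 over 0.03–30 µM in 2% DMSO.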

The target of another assay is T2, human NTPDase2 (Homo sapiens, UniProt Q9Y5L3).
T2 construct: expressed in transfected cells; host or cells: COS-7 cells (membrane preparation)
T2 sequence (Q9Y5L3 1-495): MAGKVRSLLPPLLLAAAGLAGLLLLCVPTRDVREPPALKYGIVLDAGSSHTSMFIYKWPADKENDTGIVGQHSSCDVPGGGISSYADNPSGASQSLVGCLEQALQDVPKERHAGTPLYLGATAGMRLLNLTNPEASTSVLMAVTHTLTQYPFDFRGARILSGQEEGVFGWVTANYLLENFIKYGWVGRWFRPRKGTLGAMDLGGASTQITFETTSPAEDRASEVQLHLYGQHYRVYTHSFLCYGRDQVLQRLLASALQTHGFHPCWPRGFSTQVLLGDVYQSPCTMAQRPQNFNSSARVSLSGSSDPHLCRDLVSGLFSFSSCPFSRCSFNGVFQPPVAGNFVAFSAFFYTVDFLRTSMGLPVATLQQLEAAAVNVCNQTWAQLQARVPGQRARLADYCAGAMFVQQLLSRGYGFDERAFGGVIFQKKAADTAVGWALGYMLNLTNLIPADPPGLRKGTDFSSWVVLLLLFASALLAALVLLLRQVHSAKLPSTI
Put plainly: Malachite green assay, human NTPDase2. The following applies: 2 μM compound; 100 µM ATP; COS-7 membrane preparation; read-out: % inhibition at 2 μM concentration, NTPDase2. The assay is classed as biochemical. A digest of the protocol: as §1

For `Nc1c(S(=O)(=O)O)cc(Nc2cccc3ccccc23)c2c1C(=O)c1ccccc1C2=O` [Compound 15], the concentration for half-maximal inhibition (IC50) (as a rule, the concentration that gives 50% inhibition) in the assay on rat CD73 is 0.53 µM; in the assay with rat NTPDase2 it was > 100 µM; with rat NTPDase1, > 100 µM. The inhibition at 2 µM on human NTPDase8 worked out at 9%; on human NTPDase2 it was 31%.
